From EP0428268A2, “Pharmaceutical phenylpyridone derivatives” (SMITH KLINE & FRENCH LABORATORIES LIMITED, priority 1989, dated 1991)
Where two headings read alike, the source gives them in different places. Each block holds one compound with its values, some of them ahead of it.

Key:
[1] = test system: spontaneous colonic activity; assay: Inhibition of spontaneous colonic activity in vitro (isolated distal colon, organ bath); set-up: species or system guinea-pigs; conditions: concentration reducing spontaneous colonic activity by 50%, guinea-pig distal colon, Krebs solution at 37°C, read-out: IC₅₀
From the text: Male albino guinea-pigs (300 - 400g) were killed by a blow to the back of the head and exsanguinated. A 2cm long segment of the proximal part of the hypogastric loop of the distal colon was rapidly dissected out and placed in oxygenated (95% O₂, 5% CO₂) modified warm Krebs solution. The tissue was cleaned out with Krebs and the adjoining mesentery discarded. Cotton was then tied to each end and the colon was attached to a tissue holder in an organ bath containing modified oxygenated Krebs solution at 37°C. The other end of the tissue was tied to an isometric transducer and placed under 1g tension. Force developed by the muscle was detected by the transducer, and recorded on a multitrace pen recorder. Spontaneous colonic activity, as assessed by the contraction distance over a five minute period, was subjected to computer analysis.
The tissues were allowed to settle at a resting tension of 1g for 1 hour, during which time they were washed at 15 minute intervals. Three samples of pre-dose activity were taken and averaged. The tissues were then dosed and two samples of post-dose activity were taken. The lowest value was used to calculate the percentage relaxation, and log dose response curves were constructed. The tissues were washed 10 minutes after dosing and left for 15 minutes to settle prior to the next control period. […]

ovalbumen = assay: Anti-allergic activity (ovalbumen challenge in sensitised animals, tracheal inflation pressure); assay type: in vivo, Duncan Hartley guinea-pigs; conditions: dose of 17 µmol/kg i.v.; ovalbumen challenge 30 minutes following drug administration
Method: Male Duncan Hartley guinea-pigs (250-300 g) were sensitised to ovalbumen by i.p. injection of 2 ml of 50mg.ml⁻¹ i.p. and 0.2 ml s.c. Three weeks later they were anaesthetised with 60mg.kg⁻¹ sodium pentabarbitone. The trachea was cannulated and the animal respired at a rate of 40 breaths per minute and at an initial tracheal inflation pressure of 16 mmHg. Tracheal inflation pressure was measured by a transducer connected to a side arm of the respiration circuit. The carotid artery was cannulated for the measurement of blood pressure and the signal was used to trigger an instantaneous rate meter. A jugular vein was cannulated for the administration of drug and allergen. After surgery the animals were allowed to stabilise and the drug was administered i.v. as a bolus. Following this, ovalbumen 1mg.kg⁻¹ was injected i.v. as the antigen challenge either 2, 15 or 30 minutes following drug treatment and the peak bronchoconstrictor response recorded. For the control group ovalbumen only was given. One ovalbumen challenge per guinea-pig was used and n = 6 for each time point. The percentage increase in tracheal inflation pressure was calculated.

IC50 ([1]; Cavia porcellus): 3000 nM
SMILES: CCCOc1cc(OC)ccc1-c1ccc(C(N)=O)c(=O)[nH]1 [Example 9(b), 1,2-Dihydro-6-(4-methoxy-2-propoxyphenyl)-2-oxo-3-pyridine carboxamide]

IC50 [1]: 1100 nM
SMILES: CCCOc1ccc(C(N)=O)cc1-c1ccc(C(N)=O)c(=O)[nH]1 [Example 13, 3-(3-Carboxamido-1,2-dihydro-2-oxo-6-pyidinyl)-4-propoxybenzamide]

SMILES: CC(C)COc1ccc(F)cc1-c1ccc(C(N)=O)c(=O)[nH]1 [Example 25, 6-(5-Fluoro-2-(2-methylpropoxy)phenyl)-1,2-dihydro-2-oxo-pyridine-3-carboxamide]
inhibition of the control bronchoconstrictor response (ovalbumen): 40%
